Experiment [1] addresses T1, 5-hydroxytryptamine receptor 6 (Homo sapiens, UniProt P50406). In words: Binding affinity against human 5-hydroxytryptamine 6 receptor stably transfected to HEK 293 human embryonic kidney cells using [3H]-lysergic acid diethylamide as radioligand. It is filed as cell-based, HEK293.
A short description of experiment [2]: Compound was evaluated for its binding affinity for human 5-hydroxytryptamine 3 receptor.
Experiment [3] addresses T2, 5-hydroxytryptamine receptor 2C (Rattus norvegicus, UniProt P08909).
T2 sequence (P08909 whole entry): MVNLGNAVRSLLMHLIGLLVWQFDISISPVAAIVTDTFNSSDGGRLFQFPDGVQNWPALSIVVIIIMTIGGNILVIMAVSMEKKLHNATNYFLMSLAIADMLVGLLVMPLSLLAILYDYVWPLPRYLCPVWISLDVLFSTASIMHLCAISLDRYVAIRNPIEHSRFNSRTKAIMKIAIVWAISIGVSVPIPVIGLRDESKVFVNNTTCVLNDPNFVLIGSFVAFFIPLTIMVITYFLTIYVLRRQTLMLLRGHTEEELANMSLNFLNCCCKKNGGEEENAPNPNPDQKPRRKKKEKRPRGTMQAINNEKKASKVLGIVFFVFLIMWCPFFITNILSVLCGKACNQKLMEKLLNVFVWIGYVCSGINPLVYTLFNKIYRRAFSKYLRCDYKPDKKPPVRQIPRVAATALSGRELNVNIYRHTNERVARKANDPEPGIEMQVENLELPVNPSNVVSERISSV
In words: Compound was evaluated for its binding affinity for rat 5-hydroxytryptamine 2C receptor.

Experiment [4] addresses 5-hydroxytryptamine receptor 1B (Homo sapiens, UniProt P28222). In words: Compound was evaluated for its binding affinity for human 5-hydroxytryptamine 1B receptor.
For experiment [5], the target named is 5-hydroxytryptamine receptor 7 (Homo sapiens, UniProt P34969). In words: Compound was evaluated for its binding affinity for human 5-hydroxytryptamine 7 receptor.
5-hydroxytryptamine receptor 7, sequence (P34969 whole entry): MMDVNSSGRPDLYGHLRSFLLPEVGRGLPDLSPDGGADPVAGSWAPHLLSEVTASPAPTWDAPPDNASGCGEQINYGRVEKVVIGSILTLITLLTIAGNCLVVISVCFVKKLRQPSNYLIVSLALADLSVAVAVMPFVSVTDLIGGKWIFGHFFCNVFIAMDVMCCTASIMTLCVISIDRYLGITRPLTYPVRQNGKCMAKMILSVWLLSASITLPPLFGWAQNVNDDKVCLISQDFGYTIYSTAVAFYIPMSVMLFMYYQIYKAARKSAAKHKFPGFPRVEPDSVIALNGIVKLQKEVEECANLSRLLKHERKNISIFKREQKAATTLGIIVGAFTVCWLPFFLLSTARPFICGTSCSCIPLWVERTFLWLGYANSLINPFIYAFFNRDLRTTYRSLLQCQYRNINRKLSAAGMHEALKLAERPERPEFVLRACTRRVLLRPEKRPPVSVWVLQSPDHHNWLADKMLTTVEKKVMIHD
Experiment [6] deals with 5-hydroxytryptamine receptor 2A (Rattus norvegicus, UniProt P14842). In words: Compound was evaluated for its binding affinity for rat 5-hydroxytryptamine 2A receptor.
5-hydroxytryptamine receptor 2A, sequence (P14842 whole entry): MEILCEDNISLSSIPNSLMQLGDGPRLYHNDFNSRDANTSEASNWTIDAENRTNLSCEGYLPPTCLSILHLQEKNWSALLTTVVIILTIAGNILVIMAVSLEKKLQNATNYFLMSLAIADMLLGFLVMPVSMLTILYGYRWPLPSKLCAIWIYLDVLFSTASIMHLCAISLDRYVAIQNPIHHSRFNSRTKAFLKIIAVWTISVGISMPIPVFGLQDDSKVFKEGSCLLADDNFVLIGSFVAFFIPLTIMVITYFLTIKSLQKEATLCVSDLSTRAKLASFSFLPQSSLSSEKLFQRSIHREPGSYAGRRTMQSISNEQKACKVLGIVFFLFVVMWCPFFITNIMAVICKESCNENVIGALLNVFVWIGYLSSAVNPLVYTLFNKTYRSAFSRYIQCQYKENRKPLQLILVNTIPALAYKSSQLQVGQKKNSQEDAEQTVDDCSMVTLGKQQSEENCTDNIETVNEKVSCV
Experiment [7] addresses T1, 5-hydroxytryptamine receptor 6.
The target of experiment [8] is 5-hydroxytryptamine receptor 1E (Homo sapiens, UniProt P28566). In words: Compound was evaluated for its binding affinity for human 5-hydroxytryptamine 1E receptor.
5-hydroxytryptamine receptor 1E, sequence (P28566 whole entry): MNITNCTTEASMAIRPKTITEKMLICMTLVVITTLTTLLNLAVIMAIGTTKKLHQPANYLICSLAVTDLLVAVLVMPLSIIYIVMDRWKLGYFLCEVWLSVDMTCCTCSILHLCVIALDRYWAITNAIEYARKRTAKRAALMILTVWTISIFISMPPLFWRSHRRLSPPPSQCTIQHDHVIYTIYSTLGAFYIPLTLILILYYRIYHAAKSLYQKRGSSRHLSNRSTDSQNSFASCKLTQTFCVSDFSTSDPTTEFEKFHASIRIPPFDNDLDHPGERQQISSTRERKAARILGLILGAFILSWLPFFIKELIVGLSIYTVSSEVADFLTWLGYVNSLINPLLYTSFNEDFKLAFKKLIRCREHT

Experimental findings from ChEMBL document CHEMBL1132775, “N1-(Benzenesulfonyl)tryptamines as novel 5-HT6 antagonists” (Bioorg Med Chem Lett, 2000) are described below.

The Ki is a measure of affinity in units of concentration, obtained from inhibition or displacement. Read a high Ki as weaker binding. A word on the pA2: it is a measure of antagonist potency on a negative log scale. Low readings indicate lower antagonist potency, high ones higher antagonist potency.

T1 sequence (P50406 whole entry): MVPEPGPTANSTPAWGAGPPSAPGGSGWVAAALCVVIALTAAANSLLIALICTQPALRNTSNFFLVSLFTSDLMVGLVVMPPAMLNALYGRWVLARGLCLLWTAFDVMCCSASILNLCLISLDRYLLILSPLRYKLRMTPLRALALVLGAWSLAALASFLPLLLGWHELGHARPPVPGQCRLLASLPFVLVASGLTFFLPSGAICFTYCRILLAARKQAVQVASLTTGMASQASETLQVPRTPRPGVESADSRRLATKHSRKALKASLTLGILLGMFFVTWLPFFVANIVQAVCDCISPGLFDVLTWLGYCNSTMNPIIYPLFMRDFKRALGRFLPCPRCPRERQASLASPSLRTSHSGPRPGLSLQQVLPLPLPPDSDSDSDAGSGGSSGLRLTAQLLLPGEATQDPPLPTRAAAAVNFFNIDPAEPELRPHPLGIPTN
5-hydroxytryptamine receptor 1B, sequence (P28222 whole entry): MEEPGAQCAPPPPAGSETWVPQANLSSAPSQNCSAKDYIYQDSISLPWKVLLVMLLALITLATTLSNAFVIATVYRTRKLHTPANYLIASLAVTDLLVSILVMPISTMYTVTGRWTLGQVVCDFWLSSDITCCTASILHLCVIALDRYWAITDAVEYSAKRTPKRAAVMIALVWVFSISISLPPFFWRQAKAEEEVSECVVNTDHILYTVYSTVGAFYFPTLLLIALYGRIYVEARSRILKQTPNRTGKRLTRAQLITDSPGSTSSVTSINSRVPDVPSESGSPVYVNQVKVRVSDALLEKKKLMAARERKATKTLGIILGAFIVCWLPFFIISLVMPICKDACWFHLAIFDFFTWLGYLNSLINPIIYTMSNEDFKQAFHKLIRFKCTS

Take `COc1ccc(S(=O)(=O)n2cc(CCN(C)C)c3cccc(OC)c32)cc1`: in experiment [1], the Ki turned out to be 93 nM.
Same read-out and setting: the value for `COc1ccc(OC)c(S(=O)(=O)n2cc(CCN(C)C)c3c(OC)cccc32)c1` was 7.4 nM; that for `COc1ccc2c(c1)c(CCN(C)C)cn2S(=O)(=O)c1ccc2ccccc2c1` was 1.6 nM.
With `COc1ccc2c(c1)c(CCN(C)C)cn2S(=O)(=O)c1cccc2ccccc12`, the inhibition constant Ki in experiment [1] is 0.9 nM.
Still for that read-out and setting: the value for `COc1ccc(OC)c(S(=O)(=O)n2cc(CCN(C)C)c3cccc(OC)c32)c1` was 183 nM; that for `COc1cccc2c(CCN(C)C)cn(S(=O)(=O)c3ccc(Cl)cc3)c12` was 45 nM; that for `COc1ccc(OC)c(S(=O)(=O)n2cc(CCN(C)C)c3ccc(OC)cc32)c1` was 9.5 nM.
On the same count and under the same terms, the value for `COc1ccc2c(c1)c(CCN(C)C)cn2S(=O)(=O)c1ccc(Cl)cc1` was 3.1 nM; that for `COc1ccc(OC)c(S(=O)(=O)n2cc(CCN(C)C)c3cc(OC)ccc32)c1` was 1.3 nM.
The same measure, in the same setting: the value for `COc1ccc(S(=O)(=O)n2cc(CCN(C)C)c3cc(OC)ccc32)cc1` was 8 nM.
Take `COc1ccc2c(c1)c(CCN(C)C)cn2S(=O)(=O)c1ccccc1`: the Ki in experiment [1] was found to be 2.3 nM; in experiment [2], 2390 nM; in experiment [3] it was 23 nM; in experiment [4], 9210 nM; in experiment [5], 600 nM; in experiment [6], 130 nM. The molecule also registered a Ki in experiment [8] of 4220 nM. Moreover, the pA2 in experiment [7] was 8.88.
In experiment [1], `COc1cccc2c(CCN(C)C)cn(S(=O)(=O)c3ccc4ccccc4c3)c12` displayed an inhibition constant Ki of 5 nM.
